Results reported in US20050101655A1, “Migraine treatments including isovaleramide compounds and serotonin agonists” (priority 2003, published 2005).

Columns and labels:
chronic spinalized rats [1] = test: polysynaptic flexor-reflex responses (EMG) in chronic spinalized rats; format: in vivo; conditions: for total reduction of the flexor reflex (total area under the curve): two-hour measurement period, several doses, vs vehicle
Protocol: (§1) Assessment of hyperreflexia, pain, and muscle tone in chronic spinally transected rats was conducted using male albino Holtzman-derived rats (available from Harlan Sprague-Dawley Laboratories) weighing 270-530 grams as subjects. The rats were housed independently and had continuous access to food and water throughout the experiments. All procedures were reviewed and approved by the Institutional Animal Care and Use Committee. Animals were anesthetized using a mixture of isoflurane and oxygen at a flow rate of 4 liters/minute.
(§2) The rats were placed in a stereotaxic frame and anesthesia was maintained. An incision was made so that the paraspinal muscles could be retracted and a laminectomy performed between T6-T9. A one- to two-millimeter portion of the spinal cord was removed by evacuation and replaced with gel foam to reduce bleeding, after which the incision was closed in layers.
Following the transection, rats were placed in a room in which the ambient temperature was raised to about 80° F. with a space heater to maintain body temperature. On the following morning post-surgery, the hindquarters of the spinalized rats were bathed and their urine expressed manually by applying pressure to their bladders. Experiments were conducted between 21 and 28 days after surgery. For the first two weeks post-surgery, 0.25 ml of the antibiotic Sulfatrim Pediatric Suspension was orally administered to the rats to prevent bladder infection. […]
With reference to FIG. 3, polysynaptic flexor-reflex responses, elicited by stimuli that activate high-threshold afferents, were recorded as EMG activity from the ipsilateral hamstring muscle. […] The flexor reflex was recorded, in both the pre-drug and the post-drug periods, every 30 minutes once a stable baseline response was achieved. […] The responses were determined in spinalized rats by observing the flexor-reflex response before treatment and at each of 30, 60, 90, and 120 minutes following administration of isovaleramide (300 mg/kg p.o.), baclofen (10 mg/kg s.c.) and vehicle (water, 12 ml/kg p.o.), respectively. […]

migraine symptoms = conditions: reported; cited from earlier work
[2] = oral absorption / bioavailability of isovaleramide; conditions: in vivo
chronic spinalized rats [3] = test: observational scoring of hyperreflexia elicited by an innocuous stimulus in chronic spinalized rats; format: in vivo; conditions: 300 mg/kg i.p.
Protocol: as §1, §2
Following the transection, rats were placed in a room in which the ambient temperature was raised to about 80° F. with a space heater to maintain body temperature. On the following morning post-surgery, the hindquarters of the spinalized rats were bathed and their urine expressed manually by applying pressure to their bladders. Experiments were conducted between 21 and 28 days after surgery. For the first two weeks post-surgery, 0.25 ml of the antibiotic Sulfatrim Pediatric Suspension was orally administered to the rats to prevent bladder infection. […] Within approximately two weeks, all animals regained bladder control and were no longer given antibiotic treatment. […]
Initial assessment of hyperreflexia was performed by the subjective scoring method of rating the resulting hyperreflexia response elicited with an innocuous stimulus, such as a metal probe. […] The response was evaluated for each of four trials using a scale ranging from zero (no response in all four trials) to four (a maximum, tonic-clonic reaction elicited in all four trials). […] The raw or normalized scores were analyzed with a one-way repeated measures ANOVA. […]

mice = test: hot plate test in mice (foot licking latency); format: in vivo; conditions: 600 orally, 60 minutes after administration, hot plate 54° C., compared to vehicle

Row | Compound | total reduction of the flexor reflex (total area under the curve) (chronic spinalized rats [1]) | patients with relief of the migraine symptoms (migraine symptoms) | magnitude of the flexor-reflex responses (chronic spinalized rats [1]; 300 mg/kg p.o., 30, 60, 90 and 120 minutes, compared with baclofen 10 mg/kg s.c.) | bioavailability [2] | overt behavioral toxicity or motor impairment (chronic spinalized rats [3]; chronic spinalized rats) | reduction of hyperreflexia scores (chronic spinalized rats [3]; 15, 30, 60 and 120 minutes post-administration) | hyperreflexia scores by the next day (chronic spinalized rats [3]; 1440 minutes (24 hours)) | foot licking latency (mice)
1 | NCC(CC(=O)O)c1ccc(Cl)cc1 (stereo not drawn) [baclofen, reference compound] | dose-dependent reduction of the flexor reflex |  |  |  |  |  |  | 
2 | CNS(=O)(=O)Cc1ccc2[nH]cc(CCN(C)C)c2c1 [sumatriptan] |  | approximately 40% |  |  |  |  |  | 
3 | CC(C)CC(N)=O [isovaleramide, Isovaleramide] | dose-dependent reduction of the flexor reflex |  | reduce the magnitude of the flexor-reflex responses | ~100% | No overt behavioral toxicity or motor impairment | 45-65% | essentially returned to baseline values | increased foot licking latency
